# Assay results taken from ChEMBL document CHEMBL1138844, “Synthesis and biological evaluation of 1-aryl-4,5-dihydro-1H-pyrazolo[3,4-d]pyrimidin-4-one inhibitors of cyclin-dependent kinases” (J Med Chem, 2004).
# How the values were obtained:
# [1] = target: Cyclin-dependent kinase 2/cyclin E (Homo sapiens, UniProt P24941)
# Description: Inhibition of Cyclin-dependent kinase 2-cyclin E
# [2] = target: Cyclin-dependent kinase 4/cyclin D1 (Homo sapiens, UniProt P11802); assay: Inhibition of Cyclin-dependent kinase 4-cyclin D1; format: protein-complex assay
# [3] = system: HCT-116; assay: Inhibition of human colon carcinoma cell (HCT116) proliferation; format: functional, cell-based
# [4] = target: Cyclin-dependent kinase 1/cyclin B (Homo sapiens, UniProt P06493); assay: Inhibition of Cyclin-dependent kinase 1-cyclin B; format: protein-complex assay
# Sequence of Cyclin-dependent kinase 4/cyclin D1 (P11802 whole entry): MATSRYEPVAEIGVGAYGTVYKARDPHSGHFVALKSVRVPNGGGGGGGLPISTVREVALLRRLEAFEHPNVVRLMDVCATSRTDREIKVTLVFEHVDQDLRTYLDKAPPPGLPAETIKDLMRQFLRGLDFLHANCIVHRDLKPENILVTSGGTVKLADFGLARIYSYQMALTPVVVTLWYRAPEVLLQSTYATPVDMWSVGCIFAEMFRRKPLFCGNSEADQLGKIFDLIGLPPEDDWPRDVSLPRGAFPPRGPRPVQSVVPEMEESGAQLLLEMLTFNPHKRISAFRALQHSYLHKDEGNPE
# Sequence of Cyclin-dependent kinase 4/cyclin D1 (P24385 whole entry, further chain): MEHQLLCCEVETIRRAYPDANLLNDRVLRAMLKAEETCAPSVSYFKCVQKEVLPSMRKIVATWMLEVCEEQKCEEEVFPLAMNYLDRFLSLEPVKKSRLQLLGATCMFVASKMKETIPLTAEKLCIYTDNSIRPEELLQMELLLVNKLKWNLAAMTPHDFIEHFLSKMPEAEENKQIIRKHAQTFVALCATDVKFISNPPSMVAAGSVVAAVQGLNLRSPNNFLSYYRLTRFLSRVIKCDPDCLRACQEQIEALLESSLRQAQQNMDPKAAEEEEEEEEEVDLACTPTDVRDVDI
SMILES,IC50 [1],IC50 [2],IC50 [3],IC50 [4]
C=Cc1nc2c(c(CC)nn2-c2c(Cl)cc(Cl)cc2Cl)c(=O)[nH]1,310 nM,2900 nM,–,–
CSc1nn(-c2c(Cl)cc(Cl)cc2Cl)c2nc(C3CC3)[nH]c(=O)c12,400 nM,4300 nM,–,–
CCc1nn(-c2c(Cl)cc(Cl)cc2Cl)c2nc(Cc3ccc(C)c(OC)c3)[nH]c(=O)c12,110 nM,2100 nM,9500 nM,–
CSc1nn(-c2c(Cl)cc(Cl)cc2Cl)c2nc(CN(C)C(=O)OC(C)(C)C)[nH]c(=O)c12,–,> 50000 nM,–,–
CSc1nn(-c2ccc(C)cc2C)c2nc(C)[nH]c(=O)c12,–,48000 nM,–,–
CCc1nn(-c2c(Cl)cc(Cl)cc2Cl)c2nc(Cc3cccnc3)[nH]c(=O)c12,10 nM,1300 nM,300 nM,220 nM
CSc1nn(-c2ccc(Cl)cc2)c2nc(C)[nH]c(=O)c12,–,> 160000 nM,–,–
Cc1nc2c(cnn2-c2c(Cl)cc(Cl)cc2Cl)c(=O)[nH]1,–,12000 nM,–,–
CCc1nn(-c2c(Cl)cc(Cl)cc2Cl)c2nc(CCc3ccccc3)[nH]c(=O)c12,1800 nM,7100 nM,–,–
CCc1nn(-c2c(Cl)cc(Cl)cc2Cl)c2nc(Cc3ccc(O)c(OC)c3)[nH]c(=O)c12,70 nM,6600 nM,320 nM,860 nM
CSc1nn(-c2cccc(Cl)c2)c2nc(C)[nH]c(=O)c12,–,> 160000 nM,–,–
CSc1nn(-c2c(Cl)cc(Cl)cc2Cl)c2nc(CCCCCO)[nH]c(=O)c12,420 nM,10000 nM,–,–
CNCc1nc(O)c2c(SC)nn(-c3c(Cl)cc(Cl)cc3Cl)c2n1,–,> 57000 nM,–,–
CCc1nn(-c2c(Cl)cc(Cl)cc2Cl)c2nc(CCSC)[nH]c(=O)c12,–,6500 nM,–,–
CSc1nn(-c2ccccn2)c2nc(C)[nH]c(=O)c12,–,> 180000 nM,–,–
CSc1nn(CCO)c2nc(C)[nH]c(=O)c12,–,> 210000 nM,–,–
CSc1nn(-c2c(Cl)cc(Cl)cc2C(F)(F)F)c2nc(C)[nH]c(=O)c12,–,29000 nM,–,–
CCc1nn(-c2c(Cl)cc(Cl)cc2Cl)c2nc(Cc3ccncc3)[nH]c(=O)c12,30 nM,3000 nM,550 nM,490 nM
CSc1nn(C(C)(C)C)c2nc(C)[nH]c(=O)c12,–,> 100000 nM,–,–
CCc1nn(-c2c(Cl)cc(Cl)cc2Cl)c2nc(Cc3cccc(C)c3)[nH]c(=O)c12,390 nM,> 2200 nM,2100 nM,> 560 nM
CSc1nn(-c2cc(C)ccc2C)c2nc(C)[nH]c(=O)c12,–,25000 nM,–,–

SMILES,IC50 [1],IC50 [2],IC50 [3],IC50 [4]
CCc1nn(-c2c(Cl)cc(Cl)cc2Cl)c2nc(Cc3cccc(N)c3C)[nH]c(=O)c12,10 nM,> 2200 nM,190 nM,> 270 nM
CCc1nn(-c2c(Cl)cc(Cl)cc2Cl)c2nc(Cc3cccc(O)c3)[nH]c(=O)c12,10 nM,60 nM,400 nM,190 nM
Cc1nc2c(c(C)nn2-c2c(Cl)cc(Cl)cc2Cl)c(=O)[nH]1,–,3500 nM,–,–
CCCc1nc2c(c(SC)nn2-c2c(Cl)cc(Cl)cc2Cl)c(=O)[nH]1,–,9100 nM,–,–
CCc1nn(-c2c(Cl)cc(Cl)cc2Cl)c2nc(C)[nH]c(=O)c12,140 nM,1100 nM,–,–
CCc1nn(-c2c(Cl)cc(Cl)cc2Cl)c2nc(Cc3ccc(O)cc3)[nH]c(=O)c12,10 nM,2000 nM,90 nM,100 nM
CCCCc1nn(-c2c(Cl)cc(Cl)cc2Cl)c2nc(C)[nH]c(=O)c12,–,> 6500 nM,–,–
CSc1nn(-c2c(Cl)cc(Cl)cc2Cl)c2nc(C(C)C)[nH]c(=O)c12,–,10000 nM,–,–
CSc1nn(-c2c(Cl)cc(Cl)cc2Cl)c2nc(CCCO)[nH]c(=O)c12,760 nM,13000 nM,–,–
CCc1nn(-c2c(Cl)cc(Cl)cc2Cl)c2nc(Cc3ccccn3)[nH]c(=O)c12,230 nM,9700 nM,3700 nM,–
CSc1nn(-c2c(Cl)cc(Cl)cc2Cl)c2nc(Cc3ccccc3)[nH]c(=O)c12,440 nM,11000 nM,–,–
CSc1nn(-c2c(Cl)cc(Cl)cc2Cl)c2nc(C(C)O)[nH]c(=O)c12 (stereo unspecified),–,27000 nM,–,–
CCc1nn(-c2c(Cl)cc(Cl)cc2Cl)c2c1S(=O)(=O)NC(C)=N2,> 13000 nM,> 51000 nM,–,–
CCc1nn(-c2c(Cl)cc(Cl)cc2Cl)c2nc(CCCCO)[nH]c(=O)c12,250 nM,2400 nM,–,–
CCCCn1nc(SC)c2c(=O)[nH]c(C)nc21,–,> 200000 nM,–,–
CCc1nn(-c2c(Cl)cc(Cl)cc2Cl)c2nc(CC(C)C)[nH]c(=O)c12,110 nM,> 6300 nM,–,–
CSc1nn(-c2ccccc2Cl)c2nc(C)[nH]c(=O)c12,–,19000 nM,–,–
CCc1nn(-c2c(Cl)cc(Cl)cc2Cl)c2nc(Cc3cccc(N)c3)[nH]c(=O)c12,40 nM,2900 nM,470 nM,270 nM
CCc1nn(-c2c(Cl)cc(Cl)cc2Cl)c2nc(Cc3ccccc3CO)[nH]c(=O)c12,20 nM,2900 nM,490 nM,> 270 nM
CCc1nn(-c2c(Cl)cc(Cl)cc2Cl)c2nc(Cc3ccc(OC)c(O)c3)[nH]c(=O)c12,10 nM,20 nM,130 nM,200 nM
Cc1nc2c(c(-c3ccccc3)nn2-c2c(Cl)cc(Cl)cc2Cl)c(=O)[nH]1,–,> 120000 nM,–,–

SMILES,IC50 [1],IC50 [2],IC50 [3],IC50 [4]
COc1ccccc1-n1nc(SC)c2c(=O)[nH]c(C)nc21,–,> 83000 nM,–,–
CCc1nn(-c2c(Cl)cc(Cl)cc2Cl)c2nc(Cc3ccc(O)c(O)c3)[nH]c(=O)c12,–,40 nM,720 nM,240 nM
CSc1nn(-c2c(Cl)cc(Cl)cc2Cl)c2nc(CF)[nH]c(=O)c12,1600 nM,44000 nM,–,–
Cc1nc2c(c(Cc3ccccc3)nn2-c2c(Cl)cc(Cl)cc2Cl)c(=O)[nH]1,–,> 48000 nM,–,–
CCc1nn(-c2c(Cl)cc(Cl)cc2Cl)c2nc(Cc3ccc(Br)cc3)[nH]c(=O)c12,50 nM,> 1200 nM,2300 nM,–
CCc1nn(-c2c(Cl)cc(Cl)cc2Cl)c2nc(Cc3ccc(OC)cc3)[nH]c(=O)c12,10 nM,2200 nM,600 nM,150 nM
CCc1nn(-c2c(Cl)cc(Cl)cc2Cl)c2nc(Cc3ccc(N(C)C)cc3)[nH]c(=O)c12,20 nM,> 2100 nM,340 nM,> 260 nM
COC(=O)c1nc2c(c(SC)nn2-c2c(Cl)cc(Cl)cc2Cl)c(=O)[nH]1,–,240000 nM,–,–
CSc1nn(-c2cc(Cl)ccc2Cl)c2nc(C)[nH]c(=O)c12,–,23000 nM,–,–
CSc1nn(-c2cccc(Cl)c2Cl)c2nc(C)[nH]c(=O)c12,–,50000 nM,–,–
CCc1nn(-c2c(Cl)cc(Cl)cc2Cl)c2nc(Cc3ccccc3OC)[nH]c(=O)c12,100 nM,> 22000 nM,3400 nM,–
Cc1nc2c(c(CO)nn2-c2c(Cl)cc(Cl)cc2Cl)c(=O)[nH]1,–,7000 nM,–,–
CSc1nn(-c2c(Cl)cc(C(F)(F)F)cc2Cl)c2nc(C)[nH]c(=O)c12,–,8000 nM,–,–
CNCCc1nc2c(c(SC)nn2-c2c(Cl)cc(Cl)cc2Cl)c(=O)[nH]1,6600 nM,28000 nM,–,–
CSc1nn(-c2ccc(Cl)cc2C)c2nc(C)[nH]c(=O)c12,–,74000 nM,–,–
CSc1nn(-c2c(Cl)cc(Cl)cc2Cl)c2nc(C(F)(F)F)[nH]c(=O)c12,–,> 116000 nM,–,–
CSc1nn(-c2c(Cl)cc(Cl)cc2Cl)c2nc[nH]c(=O)c12,2700 nM,95000 nM,–,–
CSc1nn(-c2c(Cl)cc(Cl)cc2Cl)c2nc(Cc3cccs3)[nH]c(=O)c12,–,20000 nM,–,–
CCc1nn(-c2c(Cl)cc(Cl)cc2Cl)c2nc(Cc3cccc(NS(C)(=O)=O)c3)[nH]c(=O)c12,260 nM,160 nM,470 nM,–
CCc1nn(-c2c(Cl)cc(Cl)cc2Cl)c2nc(-c3ccc(OC)c(OC)c3)[nH]c(=O)c12,580 nM,> 21000 nM,–,–
CCc1nn(-c2c(Cl)cc(Cl)cc2Cl)c2nc(C)n(C)c(=O)c12,> 27000 nM,> 27000 nM,–,–

SMILES,IC50 [1],IC50 [2],IC50 [3],IC50 [4]
CSc1nn(-c2c(C)cc(Cl)cc2Cl)c2nc(C)[nH]c(=O)c12,–,11000 nM,–,–
CCc1nn(-c2c(Cl)cc(Cl)cc2Cl)c2nc(Cc3cc(O)cc(O)c3)[nH]c(=O)c12,20 nM,50 nM,300 nM,–
CCCc1nn(-c2c(Cl)cc(Cl)cc2Cl)c2nc(C)[nH]c(=O)c12,–,5700 nM,–,–
CSc1nn(-c2c(Cl)cccc2Cl)c2nc(C)[nH]c(=O)c12,–,5300 nM,–,–
CSCc1nc2c(c(SC)nn2-c2c(Cl)cc(Cl)cc2Cl)c(=O)[nH]1,310 nM,15000 nM,–,–
CCc1nn(-c2c(Cl)cc(Cl)cc2Cl)c2nc(Cc3ccccc3O)[nH]c(=O)c12,120 nM,> 11000 nM,5500 nM,–
Cc1nc2c(c(C#N)nn2-c2c(Cl)cc(Cl)cc2Cl)c(=O)[nH]1,–,> 28000 nM,–,–
CSc1nn(-c2ccc(C(C)C)cc2)c2nc(C)[nH]c(=O)c12,–,> 160000 nM,–,–
CSc1nn(-c2c(C)cc(C)cc2C)c2nc(C)[nH]c(=O)c12,–,37000 nM,–,–
CCOC(=O)Cc1cccc(Cc2nc3c(c(CC)nn3-c3c(Cl)cc(Cl)cc3Cl)c(=O)[nH]2)c1,150 nM,> 1900 nM,–,–
CCc1nn(-c2c(Cl)cc(Cl)cc2Cl)c2nc(C)nc(N)c12,–,> 140000 nM,–,–
CCc1nn(-c2c(Cl)cc(Cl)cc2Cl)c2nc(CCc3cnc[nH]3)[nH]c(=O)c12,620 nM,3600 nM,–,–
CCc1nc2c(c(CC)nn2-c2c(Cl)cc(Cl)cc2Cl)c(=O)[nH]1,90 nM,940 nM,–,–
CSc1nn(-c2c(Cl)cc(Cl)cc2Cl)c2nc(-c3ccco3)[nH]c(=O)c12,–,36000 nM,–,–
CSc1nn(-c2ccc(Cl)cc2Cl)c2nc(C)[nH]c(=O)c12,–,37000 nM,–,–
CSc1nn(Cc2ccccc2)c2nc(C)[nH]c(=O)c12,–,> 150000 nM,–,–
Cc1nc2c(c(CCO)nn2-c2c(Cl)cc(Cl)cc2Cl)c(=O)[nH]1,–,> 140000 nM,–,–
CSc1nn(-c2cc(C(F)(F)F)ccc2Cl)c2nc(C)[nH]c(=O)c12,–,15000 nM,–,–
Cc1nc2c(c(C(F)(F)F)nn2-c2c(Cl)cc(Cl)cc2Cl)c(=O)[nH]1,–,3100 nM,–,–
CSc1nn(-c2ccccc2)c2nc(C)[nH]c(=O)c12,–,> 180000 nM,–,–
CSc1nn(-c2c(Cl)cc(Cl)cc2Cl)c2nc(CCN(C)C(=O)OC(C)(C)C)[nH]c(=O)c12,19000 nM,> 48000 nM,–,–
